According to patent US12637478B2, “Compound, preparation method thereof, and antibiotic composition comprising same” (priority 2020, dated 2026):
Values after ≈ are worked out from the molar mass of the structure shown. Where two headings read alike, the source gives them in different places.

How the values were obtained:
S. aureus^MS [1] = test: MIC by broth microdilution (aerobic pathogens), test strain 1; type: cell-based; details: Staphylococcus aureus
Method: (§1) The antibacterial activity of the compounds of Examples 1 to 48 of the present invention against aerobic pathogens were evaluated by measuring the minimum concentration of the antibiotic capable of inhibiting bacterial growth by 90% compared to the growth of the non-drug treated control group. MIC was measured by the broth microdilution method based on CLSI standards [Reference: Clinical and Laboratory Standards Institute Document. (2000) Methods for Dilution Antimicrobial Susceptibility Test for Bacteria that Grow Aerobically-Fifth Edition: M7-A5. CLSI, Villanova, PA].
(§2) All 13 strains such as methicillin susceptible Staphylococcus aureus (MSSA), methicillin resistant Staphylococcus aureus (MRSA), Vancomycin resistant Staphylococcus aureus (VRSA), Staphylococcus epidermidis, methicillin resistant Staphylococcus epidermidis, Enterococcus faecalis, Vancomycin resistant Enterococcus faecalis, Enterococcus faecium, Vancomycin resistant Enterococcus faecium were used.

S. aureus^MS [2] = test: MIC by broth microdilution (aerobic pathogens), test strain 2; type: cell-based; details: Staphylococcus aureus
Method: as §1, §2

E. faecalis^LinR = test: MIC by broth microdilution (aerobic pathogens), test strain 9; type: cell-based, Linezolid resistant Enterococcus faecalis; details: Enterococcus faecalis; test strain 9, E. faecalis^LinR (linezolid resistant); read-out: MIC
Method: as §1, §2

C. difficile 9689 = test: MIC by agar dilution against Clostridioides difficile, test strain 13; type: cell-based; details: test strain 13, C. difficile 9689, anaerobic, agar dilution, read-out: MIC
C. difficile 152 = test: MIC by agar dilution against Clostridioides difficile, test strain 14; type: cell-based; details: test strain 14, C. difficile 152, anaerobic, agar dilution, read-out: MIC
C. difficile 173 = test: MIC by agar dilution against Clostridioides difficile, test strain 17; type: cell-based; details: test strain 17, C. difficile 173, anaerobic, agar dilution, read-out: MIC
C. difficile 174 = test: MIC by agar dilution against Clostridioides difficile, test strain 18; type: cell-based; details: test strain 18, C. difficile 174, anaerobic, agar dilution, read-out: MIC
C. difficile 181 = test: MIC by agar dilution against Clostridioides difficile, test strain 19; type: cell-based; details: test strain 19, C. difficile 181, anaerobic, agar dilution, read-out: MIC
C. difficile 161 = test: MIC by agar dilution against Clostridioides difficile, test strain 16; type: cell-based; details: test strain 16, C. difficile 161, anaerobic, agar dilution, read-out: MIC
S. epidermis = test: MIC by broth microdilution (aerobic pathogens), test strain 5; type: cell-based; details: Staphylococcus epidermidis
Method: as §1, §2

S. epidermis^MR = test: MIC by broth microdilution (aerobic pathogens), test strain 6; type: cell-based, Methicillin resistant Staphylococcus epidermidis; details: Staphylococcus epidermidis; test strain 6, S. epidermis^MR (methicillin resistant); read-out: MIC
Method: as §1, §2

E. faecalis = test: MIC by broth microdilution (aerobic pathogens), test strain 7; type: cell-based; details: Enterococcus faecalis; test strain 7, E. faecalis; read-out: MIC
Method: as §1, §2

E. faecium^LinR = test: MIC by broth microdilution (aerobic pathogens), test strain 12; type: cell-based, Linezolid resistant Enterococcus faecium; details: Enterococcus faecium; test strain 12, E. faecium^LinR (linezolid resistant); read-out: MIC
Method: as §1, §2

E. faecalis^VanA = test: MIC by broth microdilution (aerobic pathogens), test strain 8; type: cell-based, Vancomycin resistant Enterococcus faecalis; details: Enterococcus faecalis; test strain 8, E. faecalis^VanA (vancomycin resistant); read-out: MIC
Method: as §1, §2

E. faecium = test: MIC by broth microdilution (aerobic pathogens), test strain 10; type: cell-based; details: Enterococcus faecium; test strain 10, E. faecium; read-out: MIC
Method: as §1, §2

[3] = test strain 1, S. aureus^MS, read-out: MIC
[4] = test strain 2, S. aureus^MS, read-out: MIC
[5] = test strain 5, S. epidermis, read-out: MIC

SMILES	MIC (S. aureus^MS [1]; [3]) [µg/mL]	MIC (S. aureus^MS [2]; [4]) [µg/mL]	MIC (E. faecalis^LinR) [µg/mL]	MIC (S. epidermis; [5]) [µg/mL]	MIC (S. epidermis^MR) [µg/mL]	MIC (E. faecalis) [µg/mL]	other results
C/C=C1\NC(=O)[C@H]([C@@H](C)O)NC(=O)c2csc(n2)-c2ccc(-c3nc(-c4nc(C(=O)NC5(C(=O)NCCCn6c(=O)[nH]cc([N+](=O)[O-])c6=O)CC5)cs4)cs3)nc2-c2csc(n2)[C@H]([C@@H](C)O)NC(=O)c2csc(n2)[C@H](C(C)C)NC(=O)c2csc1n2 [Compound 22]	0.25 (≈ 0.195 µM)	0.125 (≈ 0.0974 µM)	0.5 (≈ 0.39 µM)				MIC (C. difficile 9689): 0.125 µg/mL (≈ 0.0974 µM); MIC (C. difficile 152): 0.125 µg/mL (≈ 0.0974 µM); MIC (C. difficile 173): 0.5 µg/mL (≈ 0.39 µM); MIC (C. difficile 174): 0.125 µg/mL (≈ 0.0974 µM)
C/C=C1\NC(=O)[C@H]([C@@H](C)O)NC(=O)c2csc(n2)-c2ccc(-c3nc(-c4nc(C(=O)NC5(C(=O)NCCCCCB(O)O)CC5)cs4)cs3)nc2-c2csc(n2)[C@H]([C@@H](C)O)NC(=O)c2csc(n2)[C@H](C(C)C)NC(=O)c2csc1n2 [Compound 21]	0.25 (≈ 0.208 µM)	0.125 (≈ 0.104 µM)	0.5 (≈ 0.417 µM)				MIC (C. difficile 9689): 0.25 µg/mL (≈ 0.208 µM); MIC (C. difficile 152): 0.25 µg/mL (≈ 0.208 µM); MIC (C. difficile 173): 0.5 µg/mL (≈ 0.417 µM); MIC (C. difficile 174): 0.25 µg/mL (≈ 0.208 µM); MIC (C. difficile 181): 1 µg/mL (≈ 0.833 µM)
C/C=C1\NC(=O)[C@H]([C@@H](C)O)NC(=O)c2csc(n2)-c2ccc(-c3nc(-c4nc(C(=O)NC5(C(=O)NCCCn6cc([N+](=O)[O-])cn6)CC5)cs4)cs3)nc2-c2csc(n2)[C@H]([C@@H](C)O)NC(=O)c2csc(n2)[C@H](C(C)C)NC(=O)c2csc1n2 [Compound 13]							MIC (C. difficile 9689): 0.5 µg/mL (≈ 0.403 µM); MIC (C. difficile 152): 1 µg/mL (≈ 0.807 µM); MIC (C. difficile 161): 0.5 µg/mL (≈ 0.403 µM); MIC (C. difficile 173): 0.5 µg/mL (≈ 0.403 µM); MIC (C. difficile 174): 0.125 µg/mL (≈ 0.101 µM); MIC (C. difficile 181): 0.5 µg/mL (≈ 0.403 µM)
C/C=C1\NC(=O)[C@H]([C@@H](C)O)NC(=O)c2csc(n2)-c2ccc(-c3nc(-c4nc(C(=O)NC5(C(=O)NCc6ncc([N+](=O)[O-])n6C)CC5)cs4)cs3)nc2-c2csc(n2)[C@H]([C@@H](C)O)NC(=O)c2csc(n2)[C@H](C(C)C)NC(=O)c2csc1n2 [Compound 44]							MIC (C. difficile 9689): 0.5 µg/mL (≈ 0.408 µM); MIC (C. difficile 152): 0.25 µg/mL (≈ 0.204 µM); MIC (C. difficile 161): 0.25 µg/mL (≈ 0.204 µM); MIC (C. difficile 173): 0.5 µg/mL (≈ 0.408 µM); MIC (C. difficile 174): 0.5 µg/mL (≈ 0.408 µM); MIC (C. difficile 181): 0.5 µg/mL (≈ 0.408 µM)
C/C=C1\NC(=O)[C@H]([C@@H](C)O)NC(=O)c2csc(n2)-c2ccc(-c3nc(-c4nc(C(=O)NC5(C(=O)NCCN6C(=O)CSC6=O)CC5)cs4)cs3)nc2-c2csc(n2)[C@H]([C@@H](C)O)NC(=O)c2csc(n2)[C@H](C(C)C)NC(=O)c2csc1n2 [Compound 36]	0.25 (≈ 0.203 µM)	0.5 (≈ 0.407 µM)		0.5 (≈ 0.407 µM)	0.5 (≈ 0.407 µM)	0.5 (≈ 0.407 µM)	MIC (E. faecium^LinR): 1 µg/mL (≈ 0.813 µM)
C/C=C1\NC(=O)[C@H]([C@@H](C)O)NC(=O)c2csc(n2)-c2ccc(-c3nc(-c4nc(C(=O)NC5(C(=O)NCCN6CCN(C7CC7)CC6)CC5)cs4)cs3)nc2-c2csc(n2)[C@H]([C@@H](C)O)NC(=O)c2csc(n2)[C@H](C(C)C)NC(=O)c2csc1n2 [Compound 33]	1 (≈ 0.807 µM)		0.5 (≈ 0.404 µM)	1 (≈ 0.807 µM)	0.5 (≈ 0.404 µM)		
C/C=C1\NC(=O)[C@H]([C@@H](C)O)NC(=O)c2csc(n2)-c2ccc(-c3nc(-c4nc(C(=O)NC5(C(=O)NCCN6CCOCC6)CC5)cs4)cs3)nc2-c2csc(n2)[C@H]([C@@H](C)O)NC(=O)c2csc(n2)[C@H](C(C)C)NC(=O)c2csc1n2 [Compound 2]	1 (≈ 0.834 µM)	1 (≈ 0.834 µM)	1 (≈ 0.834 µM)		0.5 (≈ 0.417 µM)	0.5 (≈ 0.417 µM)	MIC (S. epidermis): 0.25 µg/mL (≈ 0.208 µM); MIC (E. faecalis^VanA): 0.5 µg/mL (≈ 0.417 µM)
C/C=C1\NC(=O)[C@H]([C@@H](C)O)NC(=O)c2csc(n2)-c2ccc(-c3nc(-c4nc(C(=O)NC5(C(=O)NCCN)CC5)cs4)cs3)nc2-c2csc(n2)[C@H]([C@@H](C)O)NC(=O)c2csc(n2)[C@H](C(C)C)NC(=O)c2csc1n2 [Compound 25]							MIC (S. aureus^MS [1]): 1 µg/mL (≈ 0.885 µM); MIC (S. aureus^MS [2]): 1 µg/mL (≈ 0.885 µM)
C/C=C1\NC(=O)[C@H]([C@@H](C)O)NC(=O)c2csc(n2)-c2ccc(-c3nc(-c4nc(C(=O)NC5(C(=O)NCCCNC6COC6)CC5)cs4)cs3)nc2-c2csc(n2)[C@H]([C@@H](C)O)NC(=O)c2csc(n2)[C@H](C(C)C)NC(=O)c2csc1n2 [Compound 17]	1 (≈ 0.834 µM)	1 (≈ 0.834 µM)					
C/C=C1\NC(=O)[C@H]([C@@H](C)O)NC(=O)c2csc(n2)-c2ccc(-c3nc(-c4nc(C(=O)NC5(C(=O)NCCCN6C(=O)CN(CCC(=O)O)C6=O)CC5)cs4)cs3)nc2-c2csc(n2)[C@H]([C@@H](C)O)NC(=O)c2csc(n2)[C@H](C(C)C)NC(=O)c2csc1n2 [Compound 19]							MIC (S. aureus^MS [1]): 0.5 µg/mL (≈ 0.385 µM)
C/C=C1\NC(=O)[C@H]([C@@H](C)O)NC(=O)c2csc(n2)-c2ccc(-c3nc(-c4nc(C(=O)NC5(C(=O)NCCN6CCN(CCC(=O)OC)CC6)CC5)cs4)cs3)nc2-c2csc(n2)[C@H]([C@@H](C)O)NC(=O)c2csc(n2)[C@H](C(C)C)NC(=O)c2csc1n2 [Compound 24]	0.5 (≈ 0.389 µM)	1 (≈ 0.778 µM)	1 (≈ 0.778 µM)	0.25 (≈ 0.195 µM)	1 (≈ 0.778 µM)	1 (≈ 0.778 µM)	
C/C=C1\NC(=O)[C@H]([C@@H](C)O)NC(=O)c2csc(n2)-c2ccc(-c3nc(-c4nc(C(=O)NC5(C(=O)NCCCN6CCN(C7CC7)CC6)CC5)cs4)cs3)nc2-c2csc(n2)[C@H]([C@@H](C)O)NC(=O)c2csc(n2)[C@H](C(C)C)NC(=O)c2csc1n2 [Compound 15]	1 (≈ 0.798 µM)	1 (≈ 0.798 µM)	0.5 (≈ 0.399 µM)	1 (≈ 0.798 µM)	1 (≈ 0.798 µM)	1 (≈ 0.798 µM)	MIC (E. faecium): 1 µg/mL (≈ 0.798 µM)
C/C=C(\NC(=O)c1csc(-c2csc(-c3ccc4c(n3)-c3csc(n3)[C@H]([C@@H](C)O)NC(=O)c3csc(n3)[C@H](C(C)C)NC(=O)c3csc(n3)/C(=C/C)NC(=O)[C@H]([C@@H](C)O)NC(=O)c3csc-4n3)n2)n1)C(=O)NCCCN1CCN(C(C)C)CC1 [Compound 34]	0.5 (≈ 0.399 µM)	1 (≈ 0.797 µM)		0.25 (≈ 0.199 µM)	0.5 (≈ 0.399 µM)	1 (≈ 0.797 µM)	MIC (E. faecalis^VanA): 1 µg/mL (≈ 0.797 µM)
C/C=C1\NC(=O)[C@H]([C@@H](C)O)NC(=O)c2csc(n2)-c2ccc(-c3nc(-c4nc(C(=O)NC5(C(=O)NCCCCCCB(O)O)CC5)cs4)cs3)nc2-c2csc(n2)[C@H]([C@@H](C)O)NC(=O)c2csc(n2)[C@H](C(C)C)NC(=O)c2csc1n2 [Compound 27]	0.25 (≈ 0.206 µM)	0.5 (≈ 0.412 µM)	0.5 (≈ 0.412 µM)				
C/C=C1\NC(=O)[C@H]([C@@H](C)O)NC(=O)c2csc(n2)-c2ccc(-c3nc(-c4nc(C(=O)NC5(C(=O)NCCN6CCN(CCCC#N)CC6)CC5)cs4)cs3)nc2-c2csc(n2)[C@H]([C@@H](C)O)NC(=O)c2csc(n2)[C@H](C(C)C)NC(=O)c2csc1n2 [Compound 31]	0.5 (≈ 0.395 µM)	1 (≈ 0.79 µM)		0.25 (≈ 0.198 µM)	0.5 (≈ 0.395 µM)	1 (≈ 0.79 µM)	MIC (E. faecalis^VanA): 1 µg/mL (≈ 0.79 µM)
